Key:
[1] = molecular target: T1, Tyrosine-protein kinase Tec (Homo sapiens) (UniProt P42680); assay: TEC Kinase screen; conditions: Compound concentration 1.0 uM
T1 sequence (whole entry): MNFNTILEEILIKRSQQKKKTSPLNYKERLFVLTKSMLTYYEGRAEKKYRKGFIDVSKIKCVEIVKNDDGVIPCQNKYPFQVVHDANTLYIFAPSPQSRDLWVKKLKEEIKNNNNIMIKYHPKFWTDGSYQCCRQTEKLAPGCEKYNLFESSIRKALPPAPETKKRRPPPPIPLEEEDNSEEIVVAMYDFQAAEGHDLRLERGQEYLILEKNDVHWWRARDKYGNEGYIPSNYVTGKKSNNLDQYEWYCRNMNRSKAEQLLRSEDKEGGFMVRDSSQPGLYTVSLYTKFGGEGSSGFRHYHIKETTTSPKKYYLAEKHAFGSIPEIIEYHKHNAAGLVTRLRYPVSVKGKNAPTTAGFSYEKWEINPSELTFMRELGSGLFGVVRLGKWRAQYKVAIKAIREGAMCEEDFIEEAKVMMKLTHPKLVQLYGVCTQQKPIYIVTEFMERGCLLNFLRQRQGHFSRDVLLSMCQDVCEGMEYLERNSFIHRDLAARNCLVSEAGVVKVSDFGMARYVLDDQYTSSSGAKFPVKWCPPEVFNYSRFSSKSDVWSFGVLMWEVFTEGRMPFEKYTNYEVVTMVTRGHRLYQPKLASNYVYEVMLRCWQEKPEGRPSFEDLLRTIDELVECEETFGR

[2] = molecular target: Myosin light chain kinase 2, skeletal/cardiac muscle (Homo sapiens) (UniProt Q9H1R3); assay: MYLK2 (skMLCK) Kinase screen; conditions: Compound concentration 1.0 uM
[3] = molecular target: Macrophage-stimulating protein receptor (Homo sapiens) (UniProt Q04912); assay: MST1R (RON) Kinase screen; conditions: Compound concentration 1.0 uM
Sequence of Macrophage-stimulating protein receptor (Homo sapiens) (Q04912 25-304 limits assumed): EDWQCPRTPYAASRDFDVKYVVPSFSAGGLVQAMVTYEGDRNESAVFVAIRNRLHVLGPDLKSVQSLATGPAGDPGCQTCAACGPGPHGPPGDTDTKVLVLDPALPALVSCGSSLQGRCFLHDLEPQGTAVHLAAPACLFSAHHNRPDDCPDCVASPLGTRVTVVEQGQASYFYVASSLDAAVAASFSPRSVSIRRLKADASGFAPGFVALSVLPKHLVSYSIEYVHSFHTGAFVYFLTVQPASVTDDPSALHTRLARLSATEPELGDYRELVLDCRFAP
Sequence of Macrophage-stimulating protein receptor (Homo sapiens) (Q04912 310-1400 limits assumed): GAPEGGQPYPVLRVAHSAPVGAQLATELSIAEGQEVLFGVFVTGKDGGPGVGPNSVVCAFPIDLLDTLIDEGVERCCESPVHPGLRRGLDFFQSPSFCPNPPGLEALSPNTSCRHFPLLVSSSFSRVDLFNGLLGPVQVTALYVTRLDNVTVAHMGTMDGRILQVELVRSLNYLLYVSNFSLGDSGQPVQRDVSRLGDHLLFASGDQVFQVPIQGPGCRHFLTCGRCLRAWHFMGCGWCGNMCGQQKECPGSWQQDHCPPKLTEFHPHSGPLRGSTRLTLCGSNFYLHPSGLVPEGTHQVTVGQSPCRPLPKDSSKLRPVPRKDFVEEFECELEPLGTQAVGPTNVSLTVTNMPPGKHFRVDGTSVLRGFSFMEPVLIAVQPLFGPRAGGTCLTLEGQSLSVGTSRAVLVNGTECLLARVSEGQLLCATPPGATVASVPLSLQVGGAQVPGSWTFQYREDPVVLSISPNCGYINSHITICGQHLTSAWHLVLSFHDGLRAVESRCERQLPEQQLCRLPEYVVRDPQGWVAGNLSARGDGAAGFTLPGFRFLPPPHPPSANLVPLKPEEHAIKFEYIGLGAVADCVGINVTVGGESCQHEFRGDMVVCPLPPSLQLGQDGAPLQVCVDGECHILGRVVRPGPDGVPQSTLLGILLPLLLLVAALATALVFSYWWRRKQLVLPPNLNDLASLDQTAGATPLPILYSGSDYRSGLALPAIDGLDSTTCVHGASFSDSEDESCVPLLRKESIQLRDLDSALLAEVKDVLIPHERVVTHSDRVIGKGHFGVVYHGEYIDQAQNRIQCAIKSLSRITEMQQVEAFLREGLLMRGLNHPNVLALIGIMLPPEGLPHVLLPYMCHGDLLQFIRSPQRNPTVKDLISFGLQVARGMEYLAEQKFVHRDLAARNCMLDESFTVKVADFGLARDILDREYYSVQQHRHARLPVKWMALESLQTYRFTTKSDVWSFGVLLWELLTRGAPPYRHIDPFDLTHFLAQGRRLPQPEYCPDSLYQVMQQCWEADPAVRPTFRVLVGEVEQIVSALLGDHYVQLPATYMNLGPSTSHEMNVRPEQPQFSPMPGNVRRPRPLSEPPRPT

[4] = molecular target: Mu-type opioid receptor (Homo sapiens) (UniProt P35372); conditions: Compound concentration 10.0 uM
Sequence of Mu-type opioid receptor (Homo sapiens) (P35372 whole entry): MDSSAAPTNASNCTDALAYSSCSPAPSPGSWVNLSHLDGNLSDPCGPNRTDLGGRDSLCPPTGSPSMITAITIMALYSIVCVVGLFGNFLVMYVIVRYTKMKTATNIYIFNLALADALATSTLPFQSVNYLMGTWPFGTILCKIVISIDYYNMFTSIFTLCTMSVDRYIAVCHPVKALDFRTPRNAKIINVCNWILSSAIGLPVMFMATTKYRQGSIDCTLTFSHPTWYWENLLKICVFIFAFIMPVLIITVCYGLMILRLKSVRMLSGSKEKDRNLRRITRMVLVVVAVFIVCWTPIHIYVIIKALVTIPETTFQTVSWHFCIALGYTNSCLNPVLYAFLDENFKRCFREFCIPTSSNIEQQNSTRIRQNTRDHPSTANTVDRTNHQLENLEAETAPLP

[5] = molecular target: Receptor-type tyrosine-protein kinase FLT3 (Homo sapiens) (UniProt P36888); assay: FLT3 Kinase screen; conditions: Compound concentration 1.0 uM
[6] = test system: T2, Receptor-type tyrosine-protein kinase FLT3 (Homo sapiens), P36888 [D835Y]; assay: FLT3 D835Y Kinase screen; conditions: Compound concentration 1.0 uM
T2 sequence (whole entry): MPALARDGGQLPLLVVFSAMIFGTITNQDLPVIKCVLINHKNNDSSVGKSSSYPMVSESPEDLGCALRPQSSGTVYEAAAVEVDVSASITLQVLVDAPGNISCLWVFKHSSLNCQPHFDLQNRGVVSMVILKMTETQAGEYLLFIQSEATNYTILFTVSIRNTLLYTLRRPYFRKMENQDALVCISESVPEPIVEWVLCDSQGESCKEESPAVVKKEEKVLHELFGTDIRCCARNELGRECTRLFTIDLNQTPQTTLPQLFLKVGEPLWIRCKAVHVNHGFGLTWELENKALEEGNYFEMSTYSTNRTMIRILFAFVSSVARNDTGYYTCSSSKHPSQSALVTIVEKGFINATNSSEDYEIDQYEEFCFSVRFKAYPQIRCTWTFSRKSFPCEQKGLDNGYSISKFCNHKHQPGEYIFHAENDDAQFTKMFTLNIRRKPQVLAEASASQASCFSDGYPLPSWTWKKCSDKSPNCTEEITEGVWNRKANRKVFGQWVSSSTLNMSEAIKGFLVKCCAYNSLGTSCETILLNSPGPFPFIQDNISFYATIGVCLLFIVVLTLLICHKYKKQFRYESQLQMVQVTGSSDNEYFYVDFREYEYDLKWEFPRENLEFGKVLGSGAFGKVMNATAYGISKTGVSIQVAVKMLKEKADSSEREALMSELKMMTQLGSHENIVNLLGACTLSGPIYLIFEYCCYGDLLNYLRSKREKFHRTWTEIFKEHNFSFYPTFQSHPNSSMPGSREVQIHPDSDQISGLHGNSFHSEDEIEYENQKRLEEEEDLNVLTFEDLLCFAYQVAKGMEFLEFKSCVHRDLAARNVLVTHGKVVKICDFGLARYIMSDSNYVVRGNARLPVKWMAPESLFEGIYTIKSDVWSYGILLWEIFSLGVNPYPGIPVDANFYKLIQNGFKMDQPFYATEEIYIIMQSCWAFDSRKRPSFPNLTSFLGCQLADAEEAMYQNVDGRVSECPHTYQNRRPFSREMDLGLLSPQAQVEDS

[7] = molecular target: 5-hydroxytryptamine receptor 2B (Homo sapiens, UniProt P41595); assay: Inhibition of Serotonin (5-Hydroxytryptamine) 5-HT2B at compound concentration of 10.0 uM in the Eurofins-Panlabs radioligand binding assay (Eurofins_assay_271700); parameters: ligand concentration 1.2 nM, non-specific ligand with concentration 10 uM Serotonin (5-HT), incubation time 60 min, incubation temperature 37 C
Sequence of 5-hydroxytryptamine receptor 2B (P41595 whole entry): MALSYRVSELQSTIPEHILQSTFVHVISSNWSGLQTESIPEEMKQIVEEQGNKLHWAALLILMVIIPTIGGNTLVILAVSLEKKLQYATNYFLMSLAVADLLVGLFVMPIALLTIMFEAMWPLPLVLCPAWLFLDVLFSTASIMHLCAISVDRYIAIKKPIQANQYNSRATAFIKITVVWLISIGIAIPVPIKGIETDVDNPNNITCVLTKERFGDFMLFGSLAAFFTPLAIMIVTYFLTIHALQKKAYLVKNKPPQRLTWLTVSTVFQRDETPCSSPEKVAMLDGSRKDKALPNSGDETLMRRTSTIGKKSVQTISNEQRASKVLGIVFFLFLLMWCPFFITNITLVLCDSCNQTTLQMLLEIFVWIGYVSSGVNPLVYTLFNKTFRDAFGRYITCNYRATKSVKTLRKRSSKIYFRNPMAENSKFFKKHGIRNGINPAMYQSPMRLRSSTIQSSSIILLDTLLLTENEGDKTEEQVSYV

[8] = molecular target: T3, Inhibitor of nuclear factor kappa-B kinase subunit epsilon (Homo sapiens) (UniProt Q14164); assay: IKBKE (IKK epsilon) Kinase screen; conditions: Compound concentration 1.0 uM
T3 sequence (whole entry): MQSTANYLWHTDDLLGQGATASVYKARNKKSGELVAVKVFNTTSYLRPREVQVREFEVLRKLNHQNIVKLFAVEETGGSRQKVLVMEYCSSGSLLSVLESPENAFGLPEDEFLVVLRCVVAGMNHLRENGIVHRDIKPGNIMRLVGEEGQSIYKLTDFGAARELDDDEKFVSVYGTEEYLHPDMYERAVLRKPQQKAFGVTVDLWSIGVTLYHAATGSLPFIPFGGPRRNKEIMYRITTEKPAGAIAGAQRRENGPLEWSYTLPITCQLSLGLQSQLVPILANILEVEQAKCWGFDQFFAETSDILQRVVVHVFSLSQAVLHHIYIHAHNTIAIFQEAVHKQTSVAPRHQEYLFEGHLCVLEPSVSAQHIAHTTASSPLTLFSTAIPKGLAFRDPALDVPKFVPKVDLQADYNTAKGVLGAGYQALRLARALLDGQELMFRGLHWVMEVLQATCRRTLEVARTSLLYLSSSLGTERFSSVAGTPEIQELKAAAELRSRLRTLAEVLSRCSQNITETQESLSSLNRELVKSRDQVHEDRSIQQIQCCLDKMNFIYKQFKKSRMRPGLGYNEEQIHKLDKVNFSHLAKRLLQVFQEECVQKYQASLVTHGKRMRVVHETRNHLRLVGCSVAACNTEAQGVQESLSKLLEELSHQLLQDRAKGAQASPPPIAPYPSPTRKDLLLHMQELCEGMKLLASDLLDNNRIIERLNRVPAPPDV

[9] = molecular target: Phosphatidylinositol 4-phosphate 3-kinase C2 domain-containing subunit beta (Homo sapiens) (UniProt O00750); assay: PIK3C2B (PI3K-C2 beta) Kinase screen; conditions: Compound concentration 1.0 uM
Sequence of Phosphatidylinositol 4-phosphate 3-kinase C2 domain-containing subunit beta (Homo sapiens) (O00750 whole entry, the tested form may be a part, canonical isoform): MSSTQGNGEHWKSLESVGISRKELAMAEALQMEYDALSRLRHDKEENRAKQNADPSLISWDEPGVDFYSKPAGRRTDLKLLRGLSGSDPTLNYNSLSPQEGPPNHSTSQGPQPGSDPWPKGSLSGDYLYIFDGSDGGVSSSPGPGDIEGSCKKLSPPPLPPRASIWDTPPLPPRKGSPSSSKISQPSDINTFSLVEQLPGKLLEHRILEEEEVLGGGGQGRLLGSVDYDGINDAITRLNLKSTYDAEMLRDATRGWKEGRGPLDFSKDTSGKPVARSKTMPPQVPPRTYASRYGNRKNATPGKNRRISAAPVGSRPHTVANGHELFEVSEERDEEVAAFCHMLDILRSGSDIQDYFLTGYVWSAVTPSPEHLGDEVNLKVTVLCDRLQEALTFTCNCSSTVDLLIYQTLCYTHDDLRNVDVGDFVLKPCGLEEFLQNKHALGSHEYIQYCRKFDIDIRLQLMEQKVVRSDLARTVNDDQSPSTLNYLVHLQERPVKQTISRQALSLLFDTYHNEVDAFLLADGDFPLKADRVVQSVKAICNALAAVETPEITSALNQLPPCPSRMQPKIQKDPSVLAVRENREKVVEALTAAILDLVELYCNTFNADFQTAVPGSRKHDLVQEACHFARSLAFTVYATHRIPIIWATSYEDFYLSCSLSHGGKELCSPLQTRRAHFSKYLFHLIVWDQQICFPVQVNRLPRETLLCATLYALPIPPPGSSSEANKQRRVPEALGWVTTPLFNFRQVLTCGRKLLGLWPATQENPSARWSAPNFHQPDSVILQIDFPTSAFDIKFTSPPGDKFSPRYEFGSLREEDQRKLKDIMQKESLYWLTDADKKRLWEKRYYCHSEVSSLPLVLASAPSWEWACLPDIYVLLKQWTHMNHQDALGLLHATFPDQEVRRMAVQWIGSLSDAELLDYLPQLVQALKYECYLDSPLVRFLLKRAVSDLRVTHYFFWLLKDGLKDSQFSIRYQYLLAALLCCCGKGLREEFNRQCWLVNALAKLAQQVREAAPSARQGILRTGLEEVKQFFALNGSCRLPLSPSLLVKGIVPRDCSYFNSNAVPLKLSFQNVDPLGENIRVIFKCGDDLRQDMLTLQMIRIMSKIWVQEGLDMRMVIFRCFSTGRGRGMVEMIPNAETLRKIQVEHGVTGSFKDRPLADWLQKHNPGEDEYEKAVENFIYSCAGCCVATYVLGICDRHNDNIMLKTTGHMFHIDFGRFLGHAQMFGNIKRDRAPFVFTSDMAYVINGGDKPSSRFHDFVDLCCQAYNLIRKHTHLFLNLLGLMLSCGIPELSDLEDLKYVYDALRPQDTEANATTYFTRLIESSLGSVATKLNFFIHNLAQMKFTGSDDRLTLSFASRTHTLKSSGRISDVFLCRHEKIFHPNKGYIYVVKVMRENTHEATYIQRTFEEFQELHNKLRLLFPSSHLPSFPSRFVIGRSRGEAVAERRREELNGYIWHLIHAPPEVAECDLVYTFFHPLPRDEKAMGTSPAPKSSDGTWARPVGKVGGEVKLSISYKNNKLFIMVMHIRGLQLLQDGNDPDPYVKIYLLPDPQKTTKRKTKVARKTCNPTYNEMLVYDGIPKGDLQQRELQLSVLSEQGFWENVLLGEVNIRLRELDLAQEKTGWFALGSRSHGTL

[10] = molecular target: Casein kinase I isoform delta (Homo sapiens) (UniProt P48730); assay: CSNK1D (CK1 delta) Kinase screen; conditions: Compound concentration 1.0 uM
[11] = molecular target: Serine/threonine-protein kinase PAK 1 (Homo sapiens) (UniProt Q13153); assay: PAK1 Kinase screen; conditions: Compound concentration 1.0 uM
[12] = molecular target: Retinoic acid receptor RXR-alpha (Homo sapiens) (UniProt P19793); assay: Retinoid X Receptor RXRalpha Eurofins-Panlabs radioligand binding assay; conditions: Compound concentration 10.0 uM
Sequence of Retinoic acid receptor RXR-alpha (Homo sapiens) (P19793 whole entry): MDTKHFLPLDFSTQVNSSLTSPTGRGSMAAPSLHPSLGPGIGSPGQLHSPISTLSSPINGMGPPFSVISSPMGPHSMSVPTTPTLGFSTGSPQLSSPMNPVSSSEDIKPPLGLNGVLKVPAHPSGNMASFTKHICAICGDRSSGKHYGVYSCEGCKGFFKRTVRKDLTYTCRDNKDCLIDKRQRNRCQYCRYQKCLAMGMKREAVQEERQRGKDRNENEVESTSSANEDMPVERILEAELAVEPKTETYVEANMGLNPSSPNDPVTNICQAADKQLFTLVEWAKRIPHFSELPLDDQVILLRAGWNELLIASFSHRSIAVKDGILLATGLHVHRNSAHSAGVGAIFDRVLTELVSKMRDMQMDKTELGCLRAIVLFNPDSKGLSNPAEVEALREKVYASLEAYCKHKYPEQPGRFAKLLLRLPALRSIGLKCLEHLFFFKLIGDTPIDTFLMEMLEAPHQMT

[13] = molecular target: Testis-specific serine/threonine-protein kinase 1 (TSSK1B) (Homo sapiens) (UniProt Q9BXA7); assay: STK22D (TSSK1) Kinase screen; conditions: Compound concentration 1.0 uM
Sequence of Testis-specific serine/threonine-protein kinase 1 (TSSK1B) (Homo sapiens) (Q9BXA7 whole entry, looked up): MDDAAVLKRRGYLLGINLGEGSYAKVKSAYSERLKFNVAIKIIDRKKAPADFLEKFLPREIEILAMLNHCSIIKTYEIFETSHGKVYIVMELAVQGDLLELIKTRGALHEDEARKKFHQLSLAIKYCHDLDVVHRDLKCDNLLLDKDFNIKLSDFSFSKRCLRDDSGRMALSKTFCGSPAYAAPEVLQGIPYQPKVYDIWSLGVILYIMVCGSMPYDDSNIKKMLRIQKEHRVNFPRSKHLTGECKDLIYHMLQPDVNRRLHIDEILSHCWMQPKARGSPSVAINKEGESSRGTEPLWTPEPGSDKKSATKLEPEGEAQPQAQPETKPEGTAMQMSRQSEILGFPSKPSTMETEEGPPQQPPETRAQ

C[C@@H]1CN(c2cc(-c3n[nH]c4ccc(OC5(C)CC5)cc34)ncn2)C[C@H](C)O1 [MLi-2]
inhibition [1]: -2.1% | inhibition [2]: 1.42% | inhibition [3]: 1.51% | inhibition [4]: 17% | inhibition [5]: 2.53% | inhibition [6]: 9.6% | Ki [7]: 750 nM | inhibition [8]: 1.77% | inhibition [9]: -3.26% | inhibition [10]: 0.974% | inhibition [11]: 6.76% | inhibition [12]: 4% | inhibition [13]: 15.8%

Source: ChEMBL document CHEMBL4507291 (2021)
